Results from US20030082525A1, “Five-Helix protein” (priority 1999, published 2003).

B1: His-tagged C-peptide C37-H6 (peptide)
peptide: GGHTTWMEWDREINNYTSLIHSLIEESQNQQEKNEQELLGGHHHHHH
modifications: not checked

Columns and labels:
[1] = test system: HIV-1 envelope-mediated membrane fusion (CHO cells expressing gp160 and Tat with HELA cells expressing CD4 and coreceptors); test: Cell-cell fusion assay (syncytia formation); type: cell-based; conditions: 200 nM 5-Helix or 6-Helix mixed with C34 at 100, 166, 190 and 210 nM
Procedure: Assays were carried out to assess the ability of 5-Helix to interact with the C-region of gp41 and inhibit function of the fusion protein. This inhibition of membrane fusion by 5-Helix and 6-Helix was assessed using a cell-based assay. Proteins 5-Helix and 6-Helix are serially diluted in modified DMEM media with 5% FCS and aliquoted into slide chambers. HELA cells (4×10^4) expressing CD4 and coreceptors and containing a β-galactosidase gene under the control of the Tat promoter are added. CHO cells (2×10^4) expressing gp160 (precursor protein to gp120/gp41) and Tat are also added. The 400 μl miniculture is incubated at 37° C. for 8 to 24 hours; fused cells (syncytia) will transcribe and translate β-galactosidase. The cells are fixed in gluteraldehyde and exposed to X-gal/Fe solution for one hour. Syncytia that contain β-galactosidase turn blue-green. […]
All data in FIGS. 3A-3C were generated using His-tagged 5-Helix (see Example 1). […] Following two days of incubation at 37° C., the cells were harvested in […] lysis buffer (Luciferase Assay System, Promega), of which […] was analyzed per manufacturer's protocol. The IC50 values were calculated by fitting the 5-Helix titration data to a Langmuir function [normalized luciferase activity=1/(1+[5−Helix]/IC50)].

[2] = molecular target: His-tagged C-peptide C37-H6 (C-peptide region of gp41) (Human immunodeficiency virus type 1 group M subtype B, UniProt P04578); conditions: 150 μM C34 added to 16 μM 5-Helix and 30 μM C37-H6
Procedure: The solution was added to 10 ml of Ni-NTA agarose and incubated at room temperature for 10 minutes. After the unbound supernatant was removed, the beads were washed twice with 1 ml TBS and then eluted with 500 mM imidazole. The Ni-bound and unbound samples were run on a 16.5% Tris-Tricine polyacrylamide gel (Biorad) and stained with Gel-code Blue (Pierce).

[3] = test system: HIV-1 envelope-mediated membrane fusion (CHO cells expressing gp160 and Tat with HELA cells expressing CD4 and coreceptors); conditions: number of syncytia; Chan et al. 1998; read-out: IC50 of C34 in cell-cell fusion assay; cited from earlier work
[4] = molecular target: HIV gp41 (from gp160, strain not stated in the assay text) (HIV-1); test: cell-based or functional assay

| Molecule | Syncytia formation in mixing (competition) experiments (in words) [1] | Competition of untagged C-peptide for 5-Helix/C37-H6 precipitation (in words) [2] | IC50 [3] | IC50, cell-cell fusion assay [4] |
| --- | --- | --- | --- | --- |
| C34: Peptide corresponding to the C-peptide region of HIV gp41 (W628 to L661); chemically synthesized, no His-tag | blocks all syncytia formation | substantially reduces the amount of precipitated 5-Helix | 0.55 ± 0.03 nM |  |
| B1 |  |  |  | 1 nM |
